Data as given in ChEMBL document CHEMBL3272243, “Synthesis and biological activity of camel and bovine beta-melanotropins” (1976).

Key:
Assay type in all cases: functional, Anura
Design in all cases: scale not given: the % may be the effect or the level left
Zone of skin [1] = test: Melanocyte stimulating activity in frog skin assessed as decrease in reflectance at 1.8 ng relative to control
Zone of skin [2] = test: Melanocyte stimulating activity in frog skin assessed as decrease in reflectance at 5.4 ng relative to control
Zone of skin [3] = test: Melanocyte stimulating activity in frog skin assessed as decrease in reflectance at 2.7 ng relative to control
Zone of skin [4] = test: Melanocyte stimulating activity in frog skin assessed as decrease in reflectance at 8.1 ng relative to control
Zone of skin [5] = test: Melanocyte stimulating activity in frog skin assessed as decrease in reflectance at 2.7 to 8.1 ng relative to camel betaC2-MSH
Zone of skin [6] = test: Melanocyte stimulating activity in frog skin assessed as decrease in reflectance at 2.3 ng relative to control
Zone of skin [7] = test: Melanocyte stimulating activity in frog skin assessed as decrease in reflectance at 6.9 ng relative to control
Zone of skin [8] = test: Melanocyte stimulating activity in frog skin assessed as decrease in reflectance at 2.7 to 8.1 ng relative to bovine beta-MSH

Substance | Activity (Zone of skin [1]) [%] | Activity (Zone of skin [2]) [%] | Activity (Zone of skin [3]) [%] | Activity (Zone of skin [4]) [%] | Activity (Zone of skin [5]) [%] | Activity (Zone of skin [6]) [%] | Activity (Zone of skin [7]) [%] | Activity (Zone of skin [8]) [%]
H-DGGPYKMEHFRWGSPPKD-OH | 28.4 | 53 | 36.4 | 56.5 | 87.8 |  |  | 
H-DSGPYKMEHFRWGSPPKD-OH |  |  | 30.1 | 49.6 | 105.6 | 29.1 | 44.6 | 120.2
